Experimental data from ChEMBL document CHEMBL1201862, “PubChem BioAssay data set” (2004).
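Exposure lasted 48 hours, with cells grown in 96-well plates and compounds tested at five concentrations. Abbreviation: GI50, concentration required for 50% inhibition of growth.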 The source made the active and inactive calls. Cut-off read from the data, not from the text of the source: active = GI50 up to about 1.1 µM and inactive = higher.

What was measured:
Experiment in all cases: NCI-60 cell line screen, 48 h
M14 = test system: M14
SF-539 = test system: SF-539
SF-295 = test system: SF-295
SK-MEL-5 = test system: SK-MEL-5
PC-3 = test system: PC-3
HCT-116 = test system: HCT-116
UACC-257 = test system: UACC-257
SK-MEL-28 = test system: SK-MEL-28
SF-268 = test system: SF-268
SNB-75 = test system: SNB-75
HCT-15 = test system: HCT-15
MDA-N = test system: MDA-N
DU-145 = test system: DU-145
RXF 393 = test system: RXF 393
OVCAR-8 = test system: OVCAR-8
NCI-H23 = test system: NCI-H23
MCF7 = test system: MCF7
ACHN = test system: ACHN
SR = test system: SR
HCC 2998 = test system: HCC 2998

SMILES | GI50 (M14) | GI50 (SF-539) | GI50 (SF-295) | GI50 (SK-MEL-5) | GI50 (PC-3) | GI50 (HCT-116) | GI50 (UACC-257) | GI50 (SK-MEL-28) | GI50 (SF-268) | GI50 (SNB-75) | GI50 (HCT-15) | GI50 (MDA-N) | GI50 (DU-145) | GI50 (RXF 393) | GI50 (OVCAR-8) | GI50 (NCI-H23) | GI50 (MCF7) | GI50 (ACHN) | GI50 (SR) | GI50 (HCC 2998)
O=C(CON1C(=O)c2ccccc2C1=O)c1ccccc1 | 57.1 µM (inactive) | 37.5 µM (inactive) | > 100 µM (inactive) | > 100 µM (inactive) | > 100 µM (inactive) | 36.2 µM (inactive) | 34.8 µM (inactive) | > 100 µM (inactive) | > 100 µM (inactive) | 97.5 µM (inactive) | > 100 µM | > 100 µM (inactive) | > 100 µM (inactive) | 55.8 µM (inactive) | > 100 µM (inactive) | > 100 µM (inactive) | 40.1 µM (inactive) | > 100 µM (inactive) |  | 
CCCCN(CCCC)CC(=O)c1ccc2cc(Cl)c3ccccc3c2c1 | 76 µM (inactive) | 42.6 µM (inactive) | 31 µM (inactive) | 17.9 µM (inactive) | 32 µM (inactive) | 43.1 µM (inactive) | 31.9 µM (inactive) |  | 16.1 µM (inactive) | 29.8 µM (inactive) | 22.9 µM |  | > 100 µM (inactive) | 13.4 µM (inactive) | 20 µM (inactive) | 46.9 µM (inactive) | 30.1 µM (inactive) | 20.4 µM (inactive) | 16.1 µM (inactive) | 32.1 µM (inactive)
C[C@@H](CO)C1=CC(C#C[Si](C)(C)C)N(C(=O)Oc2ccccc2)c2ccccc21 (some centres undefined) | 16.3 µM (inactive) | 17.8 µM (inactive) | 12.2 µM (inactive) | 16 µM (inactive) | 19.6 µM (inactive) | 15.3 µM (inactive) | 16.8 µM (inactive) | 18.2 µM (inactive) | 16.5 µM (inactive) | 10.1 µM (inactive) | 6.37 µM | 7.08 µM (inactive) | 21.6 µM (inactive) | 5.86 µM (inactive) | 17.5 µM (inactive) | 6.75 µM (inactive) |  | 18.6 µM (inactive) | 5.65 µM (inactive) | 15.2 µM (inactive)
CC(=O)N1c2ccccc2[C@H]2CCc3c([nH]c4ccccc34)[C@H]21 | 14.3 µM (inactive) | 11.8 µM (inactive) | 13.9 µM (inactive) | 12.9 µM (inactive) | 23 µM (inactive) | 3.07 µM (inactive) | 31.6 µM (inactive) | 14.7 µM (inactive) | 15.4 µM (inactive) | 18.4 µM (inactive) | 11.3 µM | 18.5 µM (inactive) | 20.1 µM (inactive) | 13.2 µM (inactive) | 25.3 µM (inactive) | 9.53 µM (inactive) |  | 16 µM (inactive) |  | 
c1ccc(C2(c3ccccc3)S/C(=C3/SC(c4ccccc4)(c4ccccc4)c4ccccc43)c3ccccc32)cc1 | > 100 µM (inactive) | > 100 µM (inactive) | > 100 µM (inactive) | > 100 µM (inactive) | > 100 µM (inactive) | > 100 µM (inactive) | > 100 µM (inactive) | > 100 µM (inactive) | > 100 µM (inactive) | > 100 µM (inactive) | > 100 µM | > 100 µM (inactive) | > 100 µM (inactive) | > 100 µM (inactive) | > 100 µM (inactive) | > 100 µM (inactive) |  | > 100 µM (inactive) | > 100 µM (inactive) | > 100 µM (inactive)
COc1ccccc1/C=C(\C#N)c1ccccc1 | 32.8 µM (inactive) | 34.8 µM (inactive) | 52.7 µM (inactive) | 16.7 µM (inactive) |  | 29.1 µM (inactive) | 31.1 µM (inactive) | 45.5 µM (inactive) | 82.8 µM (inactive) | 25.9 µM (inactive) | 18.4 µM |  |  | 27.7 µM (inactive) | 50.5 µM (inactive) | 41.5 µM (inactive) |  | 59.4 µM (inactive) | 15.6 µM (inactive) | 34.4 µM (inactive)
CC(O)[C@@]1(c2ccccc2)CC2(CCN(C)CC2)O[C@H]1C (some centres undefined) | > 100 µM (inactive) | > 100 µM (inactive) | > 100 µM (inactive) | 61.2 µM (inactive) | > 100 µM (inactive) |  | > 100 µM (inactive) | > 100 µM (inactive) | > 100 µM (inactive) | > 100 µM (inactive) | > 100 µM |  | > 100 µM (inactive) | > 100 µM (inactive) | > 100 µM (inactive) | > 100 µM (inactive) | > 100 µM (inactive) | > 100 µM (inactive) | > 100 µM (inactive) | > 100 µM (inactive)
CCOc1cc2c(cc1O)/C(=N/NS(=O)(=O)c1ccc(C)cc1)C[C@@H]1[C@@H]2CC[C@]2(C)[C@@H](O)CC[C@@H]12 | 3.21 µM (inactive) | 3.45 µM (inactive) | 3.15 µM (inactive) | 2.47 µM (inactive) | 7.53 µM (inactive) |  | 58.2 µM (inactive) | > 100 µM (inactive) | 7.13 µM (inactive) | 5.3 µM (inactive) | 4.53 µM | 1.2 µM (inactive) |  | 4.85 µM (inactive) | 12.4 µM (inactive) | 32.7 µM (inactive) | 4.02 µM (inactive) | 10.5 µM (inactive) | 1.04 µM (active) | 3.75 µM (inactive)
COc1cc2c(cc1O)CCN[C@@]21CS[C@H]2c3c(OC(C)=O)c(C)c4c(c3C(COC1=O)N1C2C2NC(Cc3cc(C)c(OC)c(O)c32)[C@@H]1O)OCO4 (some centres undefined) | < 0.01 µM (active) | < 0.01 µM (active) | < 0.01 µM (active) | < 0.01 µM (active) | < 0.01 µM (active) | < 0.01 µM (active) | < 0.01 µM (active) | < 0.01 µM (active) | < 0.01 µM (active) |  |  |  | < 0.01 µM (active) | < 0.01 µM (active) | < 0.01 µM (active) | < 0.01 µM (active) | < 0.01 µM (active) | < 0.01 µM (active) |  | 
CCOC(=O)/C(=C\NC(N)=S)C(=O)c1ccccc1 | > 100 µM (inactive) | > 100 µM (inactive) | > 100 µM (inactive) | > 100 µM (inactive) |  | > 100 µM (inactive) | > 100 µM (inactive) | > 100 µM (inactive) | > 100 µM (inactive) | > 100 µM (inactive) | > 100 µM | > 100 µM (inactive) | > 100 µM (inactive) | > 100 µM (inactive) | > 100 µM (inactive) | > 100 µM (inactive) | > 100 µM (inactive) | > 100 µM (inactive) |  | > 100 µM (inactive)
CC1(C)c2ccccc2C(O)C12CCC(=O)CC2 (centres undefined) | > 100 µM (inactive) | > 100 µM (inactive) | > 100 µM (inactive) | > 100 µM (inactive) | > 100 µM (inactive) | 9.2 µM (inactive) | > 100 µM (inactive) | > 100 µM (inactive) | > 100 µM (inactive) |  | > 100 µM | > 100 µM (inactive) | > 100 µM (inactive) | 14.5 µM (inactive) |  | > 100 µM (inactive) |  | > 100 µM (inactive) | > 100 µM (inactive) | > 100 µM (inactive)
O=C(OC1CCC2OOC1O2)c1ccc([N+](=O)[O-])cc1 (centres undefined) | > 100 µM (inactive) | > 100 µM (inactive) | > 100 µM (inactive) | > 100 µM (inactive) |  | > 100 µM (inactive) | > 100 µM (inactive) | > 100 µM (inactive) | > 100 µM (inactive) | > 100 µM (inactive) | > 100 µM |  |  | > 100 µM (inactive) | > 100 µM (inactive) | > 100 µM (inactive) |  | > 100 µM (inactive) | > 100 µM (inactive) | > 100 µM (inactive)
CCc1n[nH]c(=O)n1N=C(c1ccccc1)c1ccccc1 | > 100 µM (inactive) |  | > 100 µM (inactive) | > 100 µM (inactive) | > 100 µM (inactive) | > 100 µM (inactive) | > 100 µM (inactive) | > 100 µM (inactive) | > 100 µM (inactive) |  | > 100 µM | > 100 µM (inactive) | > 100 µM (inactive) | > 100 µM (inactive) | > 100 µM (inactive) | > 100 µM (inactive) | > 100 µM (inactive) | > 100 µM (inactive) |  | 
CC(C(=O)NCNC(=O)c1ccccc1)C(=O)Nc1ccccc1 (centres undefined) | > 100 µM (inactive) | > 100 µM (inactive) | > 100 µM (inactive) | > 100 µM (inactive) | > 100 µM (inactive) | > 100 µM (inactive) | > 100 µM (inactive) |  | > 100 µM (inactive) | > 100 µM (inactive) | > 100 µM | > 100 µM (inactive) | > 100 µM (inactive) | > 100 µM (inactive) | > 100 µM (inactive) | > 100 µM (inactive) | > 100 µM (inactive) | > 100 µM (inactive) |  | 
O=C(CC1(O)C(=O)Nc2c(Cl)cc(Cl)cc21)c1ccc([N+](=O)[O-])cc1 (centres undefined) | > 41.6 µM (inactive) | > 46.7 µM (inactive) | > 66.1 µM (inactive) | 22.8 µM (inactive) |  | > 42.2 µM (inactive) | 33.3 µM (inactive) | > 44 µM (inactive) | > 50.8 µM (inactive) | 29.2 µM (inactive) | > 55.3 µM |  |  | > 100 µM (inactive) | > 51.5 µM (inactive) | 29.9 µM (inactive) |  | 38.6 µM (inactive) | > 51.3 µM (inactive) | 38 µM (inactive)
Cc1ccc(/C=C2\CCCCCC2=O)cc1 | > 100 µM (inactive) |  | > 100 µM (inactive) | > 100 µM (inactive) | > 100 µM (inactive) | > 100 µM (inactive) | > 100 µM (inactive) | > 100 µM (inactive) | > 100 µM (inactive) | > 100 µM (inactive) | > 100 µM | > 100 µM (inactive) | > 100 µM (inactive) |  |  | > 100 µM (inactive) |  | > 100 µM (inactive) | > 100 µM (inactive) | > 100 µM (inactive)
